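All cell lines were grown in 96-well plates and treated with compound for 48 hours. At the GI50, growth is halved.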 Active and inactive are the calls of the source. Rule as the data show it: active = GI50 up to about 1.1 µM and inactive = higher.
Experiments:
Assay in all cases: NCI tumour cell line growth inhibition, 48 h
SK-OV-3 = tested on: SK-OV-3
SK-MEL-5 = tested on: SK-MEL-5
SK-MEL-28 = tested on: SK-MEL-28
OVCAR-5 = tested on: OVCAR-5
NCI-H23 = tested on: NCI-H23
MOLT-4 = tested on: MOLT-4
BT-549 = tested on: BT-549
U-251 = tested on: U-251
UACC-62 = tested on: UACC-62
OVCAR-3 = tested on: OVCAR-3
HT-29 = tested on: HT-29
MDA-MB-435 = tested on: MDA-MB-435
NCI-H460 = tested on: NCI-H460
HOP-92 = tested on: HOP-92
T47D = tested on: T47D
OVCAR-8 = tested on: OVCAR-8
HCT-15 = tested on: HCT-15
M14 = tested on: M14
SF-295 = tested on: SF-295
SK-MEL-2 = tested on: SK-MEL-2

Structure (SMILES)	GI50 (SK-OV-3)	GI50 (SK-MEL-5)	GI50 (SK-MEL-28)	GI50 (OVCAR-5)	GI50 (NCI-H23)	GI50 (MOLT-4)	GI50 (BT-549)	GI50 (U-251)	GI50 (UACC-62)	GI50 (OVCAR-3)	GI50 (HT-29)	GI50 (MDA-MB-435)	GI50 (NCI-H460)	GI50 (HOP-92)	GI50 (T47D)	GI50 (OVCAR-8)	GI50 (HCT-15)	GI50 (M14)	GI50 (SF-295)	GI50 (SK-MEL-2)
N#CC[N+]1(Cc2ccccn2)CCCC1.O=S(=O)([O-])c1ccccc1	> 100 µM (inactive)	> 100 µM (inactive)	> 100 µM (inactive)	> 100 µM (inactive)	> 100 µM (inactive)	7.01 µM (inactive)	> 100 µM (inactive)	> 100 µM (inactive)	> 100 µM (inactive)	> 100 µM (inactive)	> 100 µM (inactive)	> 100 µM (inactive)	> 100 µM (inactive)	> 100 µM (inactive)	> 100 µM (inactive)	> 100 µM (inactive)	> 100 µM	> 100 µM (inactive)	> 100 µM (inactive)	> 100 µM (inactive)
COc1cc2c(cc1OC)C(SC)C(=O)N(Cc1cccc(OC)c1OC)CC2 (stereo not given)	2.54 µM (inactive)	0.703 µM (active)	1.99 µM (inactive)	14.9 µM (inactive)	2.25 µM (inactive)	2.33 µM (inactive)	0.755 µM (active)	2.02 µM (inactive)	0.731 µM (active)	0.798 µM (active)	1.03 µM (active)	0.353 µM (active)	1.09 µM (active)	0.861 µM (active)	4.13 µM (inactive)	4.29 µM (inactive)	0.718 µM	2.28 µM (inactive)	0.63 µM (active)	1.26 µM (inactive)
CC1(C)OC2[C@@H](CO[C@@]3([C@H]4OC(C)(C)O[C@@H]4CO)OC(C)(C)O[C@@H]23)O1 (stereo not given in full)	> 100 µM (inactive)	> 100 µM (inactive)	> 100 µM (inactive)	> 100 µM (inactive)	> 100 µM (inactive)	> 100 µM (inactive)	> 100 µM (inactive)	> 100 µM (inactive)	> 100 µM (inactive)	> 100 µM (inactive)	> 100 µM (inactive)	> 100 µM (inactive)	> 100 µM (inactive)	> 100 µM (inactive)	> 100 µM (inactive)	> 100 µM (inactive)	> 100 µM	> 100 µM (inactive)	> 100 µM (inactive)	> 100 µM (inactive)
O=c1c2ncn(C3CCCCO3)c2n(-c2ccccc2)c(=S)n1-c1ccccc1 (stereo not given)	20.7 µM (inactive)	> 74.3 µM (inactive)	> 68.1 µM (inactive)	> 61.1 µM (inactive)	31.4 µM (inactive)	> 100 µM (inactive)	23 µM (inactive)	14.5 µM (inactive)	18.5 µM (inactive)	> 61.9 µM (inactive)	> 76.4 µM (inactive)	> 67.6 µM (inactive)	> 54.8 µM (inactive)	9.91 µM (inactive)	2.31 µM (inactive)	19 µM (inactive)	55.3 µM	> 92.5 µM (inactive)	16.1 µM (inactive)	39.2 µM (inactive)
Cc1cc(C)n(CN(Cn2nc(C)cc2C)c2ccc(N(Cn3nc(C)cc3C)Cn3nc(C)cc3C)cc2)n1	25.9 µM (inactive)	16.5 µM (inactive)	18.7 µM (inactive)	24.7 µM (inactive)	21.2 µM (inactive)	28 µM (inactive)	19.2 µM (inactive)	27.9 µM (inactive)	24.2 µM (inactive)	25.5 µM (inactive)	21.9 µM (inactive)	17.7 µM (inactive)	24.6 µM (inactive)	23.9 µM (inactive)	23.8 µM (inactive)	27.4 µM (inactive)	21.5 µM	20 µM (inactive)	30.8 µM (inactive)	23.1 µM (inactive)
Cc1ccc(S[C@@H](C)[C@@](O)(C(N)=O)c2ccccc2)cc1	> 100 µM (inactive)	20.6 µM (inactive)	> 100 µM (inactive)	> 100 µM (inactive)	29.8 µM (inactive)	12.4 µM (inactive)	30.1 µM (inactive)	70.3 µM (inactive)	40.3 µM (inactive)	> 100 µM (inactive)	41.3 µM (inactive)	45.6 µM (inactive)	85.1 µM (inactive)	18.7 µM (inactive)	26.7 µM (inactive)	38.5 µM (inactive)	84.3 µM	> 100 µM (inactive)	18.5 µM (inactive)	39.4 µM (inactive)
[O-]c1c[n+](CCCC[n+]2cc([O-])on2)no1	> 100 µM (inactive)	> 100 µM (inactive)	> 100 µM (inactive)	> 100 µM (inactive)	> 100 µM (inactive)	22.8 µM (inactive)	> 100 µM (inactive)	> 100 µM (inactive)	> 100 µM (inactive)	> 100 µM (inactive)	> 100 µM (inactive)	> 100 µM (inactive)	> 100 µM (inactive)	> 100 µM (inactive)	> 100 µM (inactive)	> 100 µM (inactive)	> 100 µM	> 100 µM (inactive)	> 100 µM (inactive)	> 100 µM (inactive)
COC(=O)/C=C\C(C#N)(C#N)/N=C/c1ccc(C)s1	15 µM (inactive)	6.92 µM (inactive)	4.28 µM (inactive)	6.53 µM (inactive)	2.23 µM (inactive)	0.955 µM (active)	2.83 µM (inactive)	12.4 µM (inactive)	15.2 µM (inactive)	3.94 µM (inactive)	1.51 µM (inactive)	2.47 µM (inactive)	19.3 µM (inactive)	1.64 µM (inactive)	1.58 µM (inactive)	3.69 µM (inactive)	1.67 µM	1.85 µM (inactive)	17.8 µM (inactive)	5.48 µM (inactive)
Cc1nc2ccc(S(=O)(=O)Nc3ccccn3)cc2c(=O)n1NS(=O)(=O)c1ccccn1	> 100 µM (inactive)	> 100 µM (inactive)	> 100 µM (inactive)	> 100 µM (inactive)	> 100 µM (inactive)	> 100 µM (inactive)	> 100 µM (inactive)	> 100 µM (inactive)	> 100 µM (inactive)	> 100 µM (inactive)	> 100 µM (inactive)	> 100 µM (inactive)	> 100 µM (inactive)	> 100 µM (inactive)	> 100 µM (inactive)	> 100 µM (inactive)	> 100 µM	> 100 µM (inactive)	> 100 µM (inactive)	> 100 µM (inactive)
Cc1sc(C)c2c1C(=O)CC2N (stereo not given)	> 76.6 µM (inactive)	46.3 µM (inactive)	> 42.7 µM (inactive)	> 100 µM (inactive)	32.1 µM (inactive)	1.58 µM (inactive)	20 µM (inactive)	76.4 µM (inactive)	75.3 µM (inactive)	17.5 µM (inactive)	24.9 µM (inactive)	20.8 µM (inactive)	29.1 µM (inactive)	18.5 µM (inactive)	17.4 µM (inactive)	21.5 µM (inactive)	31.3 µM	14.1 µM (inactive)	> 100 µM (inactive)	> 100 µM (inactive)
COC(=O)c1ccccc1CC1Cc2ccc3c(c2C1)CCC3 (stereo not given)	32.7 µM (inactive)	22.1 µM (inactive)	46 µM (inactive)	29.5 µM (inactive)	38.1 µM (inactive)	21.6 µM (inactive)	60.8 µM (inactive)	28.6 µM (inactive)	38.5 µM (inactive)	31.3 µM (inactive)	20 µM (inactive)	22.9 µM (inactive)	30.1 µM (inactive)	20.1 µM (inactive)	22.9 µM (inactive)	34.5 µM (inactive)	20.4 µM	33.9 µM (inactive)	35.2 µM (inactive)	15.6 µM (inactive)
OC[C@]1(n2nc3ccccc3n2)OC[C@@H]1c1ccccc1	> 100 µM (inactive)	83.2 µM (inactive)	28.2 µM (inactive)	91.4 µM (inactive)	48.2 µM (inactive)	33.7 µM (inactive)	28.8 µM (inactive)	48.4 µM (inactive)	43.3 µM (inactive)	21.7 µM (inactive)	29.6 µM (inactive)	32.2 µM (inactive)	76.2 µM (inactive)	44.6 µM (inactive)	36 µM (inactive)	51.5 µM (inactive)	42.1 µM	90.6 µM (inactive)	83.4 µM (inactive)	34 µM (inactive)
CCC1CN2CCc3c([nH]c4ccccc34)[C@@](C(=O)OC)(c3cc4c(cc3OC)N(C)C3C(O)(C(=O)OC)C(C(=O)OC)C5(CC)C=CCN6CCC43C65)C[C@@H](C2)[C@@H]1C(C)(C)C (stereo not given in full)	1 µM (active)	0.274 µM (active)	0.652 µM (active)	2.68 µM (inactive)	0.352 µM (active)	0.479 µM (active)	1.61 µM (inactive)	0.417 µM (active)	0.494 µM (active)	0.316 µM (active)	0.328 µM (active)	0.196 µM (active)	0.393 µM (active)	1.03 µM (active)	0.687 µM (active)	0.5 µM (active)	0.396 µM	0.401 µM (active)	0.226 µM (active)	0.41 µM (active)
COC(=O)c1cc(C(=CCC[C@H]2CC[C@@]3(C)C(CCC4C3CC[C@@]3(C)C4CC[C@@H]3C(C)CCCC(C)C)C2)c2cc(Cl)c(O)c(C(=O)OC)c2)cc(Cl)c1O (stereo not given in full)	> 10 µM (inactive)	> 10 µM (inactive)	> 10 µM (inactive)	> 10 µM (inactive)	> 10 µM (inactive)	> 10 µM (inactive)	> 10 µM (inactive)	> 10 µM (inactive)	> 10 µM (inactive)	> 10 µM (inactive)	> 10 µM (inactive)	> 10 µM (inactive)	> 10 µM (inactive)	> 10 µM (inactive)	> 10 µM (inactive)	> 10 µM (inactive)	> 10 µM	> 10 µM (inactive)	> 10 µM (inactive)	> 10 µM (inactive)
